From publication PMC10794137, “A new antibiotic traps lipopolysaccharide in its intermembrane transporter” (Nature, 2024) come the findings set out here.

Values joined by “and” are separate entries in the source; they are usually repeats but may differ in a detail not shown here. Identical values can stand only once.

Test [1] deals with Acinetobacter baylyi ΔLpxC. In kind it is cell-based. Conditions: A. baylyi ΔLpxC (lacking LPS). As for the experimental part:
(§1) Culture, genetic manipulation and MIC measurements of A. baylyi ADP1 were conducted according to previously reported procedures[46],[51]. Point mutants were constructed in a two-step procedure following ref. [52] with the introduction and excision of the integration cassette at codon 66 of pepA, wherein the excising fragment of otherwise wild-type chromosomal DNA sequence from codon 406 of pepA to codon 193 of lptG bore the desired mutation and the resulting clones were screened by amplicon sequencing from codon 81 of HolC to codon 501 of GpmI, whereas lpxM deletion was achieved following the same procedure except that the integration cassette insertion and excision removed codons 79–279 of lpxM to avoid interference with neighbouring and overlapping genes that a larger deletion may risk and replaced codon 78 with an ochre stop codon to prevent a readthrough resulting in an aberrant fusion, with the excising fragment sequence spanning from codon 211 of sppA to codon 497 of ComA and verified by amplicon sequencing from codon 94 of MhpC to codon 327 of ComA as well as by absence of a PCR product corresponding to a region spanning codons 79 to 279 of lpxM to check for duplications. A deletion of the lon protease was made in the same manner to produce the stain used for expression and purification of LptB2FG to mimic the BL21 strain of E. coli used in the rest of purifications, for which the region encompassing 72 base pairs (bp) upstream of the lon start codon and 1 bp downstream of the lon stop codon was excised after being replaced with the same integration cassette, yielding a markerless deletion, with the excising fragment sequence spanning from codon 491 of ArnT to codon 40 of 45_DOPA_Dioxygenase and verified by amplicon sequencing spanning from codon 322 of ArnT to codon 221 of 45_DOPA_Dioxygenase as well as by absence of a PCR product corresponding to a region spanning from codons 328 to 768 of lon to check for duplications. Following amplicon confirmation, three validated isolates of each constructed mutant were tested for susceptibility to a panel of antibiotics with […] known mechanisms of action as a further validation step to ensure congruence of phenotypes across replicates, which was confirmed in all cases and one of the validated replicates was later used for MIC measurements reported here.
(§2) MIC determinations were performed by broth microdilution in line with CLSI guidelines (CLSI M07-A11 2018). Bacterial inocula were prepared by diluting overnight liquid cultures in LB. Antibacterial panels containing antibacterial solutions were inoculated with an appropriate volume of inoculum to give a final inoculum of about 5 × 10^5 c.f.u. ml^−1 and desired test concentrations of antibacterial agents in standard 96-well plates with 0.1 ml of culture per well. The test plates were incubated for 20–24 h and optical density (OD600) was recorded using a plate reader. MIC values corresponded to the lowest compound concentration inhibiting bacterial growth beyond which OD ceased to decrease.

In another test the test system is LptB2F^I317NGC. The experiment in a line: LPS release assay, LptB2F(I317N)GC. Type of test: biochemical, Acinetobacter baylyi. Conditions: LptF I317N complex, E. coli LPS. As for the experimental part: (§3) Proteoliposomes were prepared as described previously. Aqueous E. coli polar lipid extract (Avanti Polar Lipids) (30 mg ml^−1) and aqueous LPS from E. coli EH100 (Ra mutant; Sigma) (2 mg ml^−1) were sonicated briefly for homogenization. For experiments testing the effect of LPS structure, we used LPS isolated from either GKM374 (BL21DE3 eptA::catR arnA::kanR eptC::gentR) or TXM418 (BL21DE3 eptA::catR arnA::FRT eptB::gentR lpxM::kanR) as described previously. A mixture of 20 mM Tris-HCl (pH 8.0), 150 mM NaCl, 7.5 mg ml^−1 of E. coli polar lipids, 0.5 mg ml^−1 of LPS and 0.25% DDM was prepared and kept on ice for 10 min. Purified LptB2FGC or LptB2FG was added to a final concentration of 0.86 μM and the mixture was left on ice for 20 min. The mixture was diluted 100-fold with cold 20 mM Tris-HCl (pH 8.0) and 150 mM NaCl and kept on ice for 20 min. The proteoliposomes were pelleted (300,000g, 2 h, 4 °C), resuspended in 20 mM Tris-HCl (pH 8.0) and 150 mM NaCl, diluted 100× and centrifuged (300,000g, 2 h, 4 °C). The pellets were resuspended in a mixture of 20 mM Tris-HCl (pH 8.0), 150 mM NaCl and 10% glycerol (250 μl per 100 μl of the original predilution solution), homogenized by sonication, flash frozen and stored at −80 °C until use.
The amounts of release of LPS from proteoliposomes to LptA were measured as previously described. […]

The test system of the next test is Acinetobacter LptB2FGC. The experiment in a line: LPS release assay from proteoliposomes to LptA, wild-type LptB2FGC. Conditions: for Inhibition of LPS release (transport) to LptA: wild-type LptB2FGC, E. coli LPS, 60 min. Type of test: biochemical, Acinetobacter baylyi. The method, then: as §3
The amounts of release of LPS from proteoliposomes to LptA were measured as previously described. Assays used 60% proteoliposomes (by volume) in a solution containing 50 mM Tris-HCl (pH 8.0), 500 mM NaCl, 10% glycerol and 2 µM LptA^I36pBPA. Reaction mixtures were incubated with drug for 10 min at room temperature, as applicable. Reactions were then initiated by the addition of ATP and MgCl2 (final concentrations of 5 mM and 2 mM, respectively) and proceeded at 30 °C. Aliquots (25 µl) were removed from the reaction mixtures and irradiated with ultraviolet (UV) light (365 nm) on ice for 10 min using a B-100AP lamp (Fisher Scientific). Following UV irradiation, 25 µl of 2× SDS–PAGE sample loading buffer was added, samples were boiled for 10 min and proteins were separated using Tris-HCl 4–20% polyacrylamide gradient gels with Tris-glycine running buffer. Immunoblotting was conducted as described above.

Test [2] concerns Acinetobacter baylyi LptF(I317N). In kind it is cell-based. Conditions: A. baylyi LptF(I317N). The method, then: as §1, §2
The test system of test [3] is Acinetobacter baylyi LptF(V314L 315del). Type of test: cell-based. Particulars: A. baylyi LptF(V314L 315del). The method, then: as §1, §2
For test [4], the system named is Acinetobacter baylyi LptF(E58V). Type of test: cell-based. Particulars: A. baylyi LptF(E58V). The method, then: as §1, §2
Test [5] relates to Acinetobacter baylyi LptF(R320T). In kind it is cell-based. Conditions: A. baylyi LptF(R320T). As for the experimental part: as §1, §2
Test [6] has as its system Acinetobacter baylyi LptF(W271R). Type of test: cell-based. Conditions: A. baylyi LptF(W271R). The method, then:
as §1, §2

Test [7] has as its system Acinetobacter baylyi LptF(E249K). Type of test: cell-based. Particulars: A. baylyi LptF(E249K). The method, then: as §1, §2
The subject of test [8] is Acinetobacter baylyi LptG(L36Q). Type of test: cell-based. Conditions: A. baylyi LptG(L36Q). As for the experimental part: as §1, §2
For a further test, the target named is T1, E. coli LptB2FGC (Escherichia coli, UniProt P0ADC6+P0AF98).
T1 construct: made in house
Put plainly: LPS release assay, E. coli LptB2FGC. Type of test: biochemical. Particulars: wild-type E. coli LptB2FGC, 60 min.

What is called MIC is the lowest concentration that inhibits growth of the organism. A low value points to inhibition by little substance.

T1 sequence (P0AF98 whole entry): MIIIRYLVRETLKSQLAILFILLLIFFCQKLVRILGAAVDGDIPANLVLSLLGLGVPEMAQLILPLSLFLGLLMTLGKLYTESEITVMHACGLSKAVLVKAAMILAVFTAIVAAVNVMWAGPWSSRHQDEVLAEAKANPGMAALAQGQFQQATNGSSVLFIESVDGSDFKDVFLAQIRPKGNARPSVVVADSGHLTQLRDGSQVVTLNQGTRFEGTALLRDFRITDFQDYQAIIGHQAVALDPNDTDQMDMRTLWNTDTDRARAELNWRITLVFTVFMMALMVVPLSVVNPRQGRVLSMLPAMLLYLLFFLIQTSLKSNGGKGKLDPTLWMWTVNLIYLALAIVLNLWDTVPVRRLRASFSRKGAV
T1 sequence (P0ADC6 whole entry): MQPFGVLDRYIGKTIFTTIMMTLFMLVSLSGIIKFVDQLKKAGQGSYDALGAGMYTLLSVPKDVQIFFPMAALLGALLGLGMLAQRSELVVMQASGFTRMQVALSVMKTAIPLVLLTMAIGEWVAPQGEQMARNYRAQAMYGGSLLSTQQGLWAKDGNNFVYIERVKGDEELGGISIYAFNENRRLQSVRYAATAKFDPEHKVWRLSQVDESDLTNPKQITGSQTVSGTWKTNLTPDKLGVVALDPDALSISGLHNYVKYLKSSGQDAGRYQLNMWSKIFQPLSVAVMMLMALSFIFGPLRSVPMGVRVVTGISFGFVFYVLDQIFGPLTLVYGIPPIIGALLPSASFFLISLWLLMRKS
T1 sequence (P0A9V1 whole entry partner): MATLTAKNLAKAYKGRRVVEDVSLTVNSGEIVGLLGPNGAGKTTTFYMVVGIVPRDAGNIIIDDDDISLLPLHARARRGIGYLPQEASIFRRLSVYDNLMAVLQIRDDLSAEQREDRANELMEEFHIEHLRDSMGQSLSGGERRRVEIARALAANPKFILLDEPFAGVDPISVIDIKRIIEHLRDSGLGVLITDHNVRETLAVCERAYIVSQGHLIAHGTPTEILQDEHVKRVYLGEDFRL
T1 sequence (P0ADV9 whole entry partner): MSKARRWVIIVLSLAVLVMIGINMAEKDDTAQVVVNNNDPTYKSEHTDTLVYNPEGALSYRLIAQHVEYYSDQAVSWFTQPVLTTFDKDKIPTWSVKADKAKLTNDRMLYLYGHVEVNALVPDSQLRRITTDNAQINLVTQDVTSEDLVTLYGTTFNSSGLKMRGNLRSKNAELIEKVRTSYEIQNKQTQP
Protocol for E. coli LptB2FGC: The amounts of release of LPS from proteoliposomes to LptA were measured as previously described[20]. Assays used 60% proteoliposomes (by volume) in a solution containing 50 mM Tris-HCl (pH 8.0), 500 mM NaCl, 10% glycerol and 2 µM LptA^I36pBPA. Reaction mixtures were incubated with drug for 10 min at room temperature, as applicable. Reactions were then initiated by the addition of ATP and MgCl2 (final concentrations of 5 mM and 2 mM, respectively) and proceeded at 30 °C. Aliquots (25 µl) were removed from the reaction mixtures and irradiated with ultraviolet (UV) light (365 nm) on ice for 10 min using a B-100AP lamp (Fisher Scientific).

As for `CN1C(=O)[C@H](CCCCN)NC(=O)[C@H](CCCN)NCc2cccnc2Sc2c(Cl)ccc(-c3ccc(N)nc3)c2CNC(=O)[C@@H]1Cc1c[nH]c2ccccc12` [Compound 1], in test [1], the MIC was > 50 µM and > 40 µg/mL. Moreover, in the test with LptB2F^I317NGC, the “Inhibition of LPS release to LptA” value was “did not block LPS release”. The “Fold higher compound concentration at which transport of ΔLpxM LPS was possible vs that inhibiting wild-type LPS transport” value with Acinetobacter LptB2FGC (LPS from E. coli LpxM deletion strain vs matching wild-type LPS) is on record as 20 fold. For the same molecule, the “Inhibition of LPS release (transport) to LptA” value in the test with Acinetobacter LptB2FGC was “blocked LPS release”.
In the case of `CN1C(=O)[C@H](CCCCN)NC(=O)[C@H](CCCN)NCc2cccnc2Sc2cccc(-c3ccc(C(=O)O)cc3)c2CNC(=O)[C@@H]1Cc1c[nH]c2ccccc12` [Compound 2, Zosurabalpin], the minimal inhibitory concentration (MIC) in test [2] is 9 µM and 7 µg/mL; in test [3] it was 3 µM and 2 µg/mL; in test [4] it was 3.4 µM and 2.7 µg/mL; in [5], 1.4 µM and 1.1 µg/mL; in test [6], 0.08 µg/mL and 0.1 µM; in [7], 17 µM and 13 µg/mL. Besides, the minimal inhibitory concentration (MIC) in test [8] is 0.44 µM and 0.35 µg/mL. Further, the “Inhibition of LPS transport to LptA” value at E. coli LptB2FGC is “does not inhibits LPS transport”.
With `CN1C(=O)[C@H](CCCCN)NC(=O)[C@H](CCCN)NCc2cccnc2Sc2c(Cl)ccc(Cl)c2CNC(=O)[C@@H]1Cc1c[nH]c2ccccc12` [Compound 3], the MIC is > 50 µM in [2]; 0.24 µM and 0.18 µg/mL in test [3]; 14 µM and 10 µg/mL in test [4]; 0.24 µM and 0.18 µg/mL in test [5]; 0.07 µg/mL and 0.1 µM in test [6]; > 50 µM in [7]. The MIC in test [8] is 0.44 µM and 0.33 µg/mL. Also, the “Fold less effective than 1 and 2 in LPS release from LptB2FGC to LptA” value in the test with Acinetobacter LptB2FGC (LptB2FGC with LptC TM helix) is given as 100 fold. Also, the “Inhibition of LPS release (transport) to LptA” value in the test on Acinetobacter LptB2FGC was “not inhibited”.
